In paper PMC8747035, “Design, Synthesis, and Biological Evaluation of 5,6,7,8-Tetrahydrobenzo[4,5]thieno[2,3-d]pyrimidines as Microtubule Targeting Agents” (Molecules, 2022):

Legend:
CAKI-1 = experiment: NCI-60 growth inhibition, CAKI-1; format: cell-based; conditions: Homo sapiens, Renal Cancer
Source text: (§1) Compound 4 had better potency than the lead compound 1 in 50 cancer cell lines. (better by 5 to 6-fold in leukemia, 2 to 17-fold in NSCLC, 2 to 6-fold in colon cancer, 2 to 5-fold in CNS cancer, 2 to 25-fold in melanoma, 2 to 5-fold in ovarian cancer, 2 to 9-fold in renal cancer, 2 to 5-fold in prostate cancer, and 2 to 6-fold in breast cancer compared to lead compound 1).

OVCAR-8 = experiment: NCI-60 growth inhibition, OVCAR-8; format: cell-based; conditions: Homo sapiens, Ovarian Cancer
Source text: as §1

MOLT-4 = experiment: NCI-60 growth inhibition, MOLT-4; format: cell-based; conditions: Homo sapiens, Leukemia
Source text: as §1

M14 = experiment: NCI-60 growth inhibition, M14; format: cell-based; conditions: Homo sapiens, Melanoma
Source text: as §1

UACC-62 = experiment: NCI-60 growth inhibition, UACC-62; format: cell-based; conditions: Homo sapiens, Melanoma
Source text: as §1

MDA-MB-468 = experiment: NCI-60 growth inhibition, MDA-MB-468; format: cell-based; conditions: Homo sapiens, Breast Cancer
Source text: as §1

BT-549 = experiment: NCI-60 growth inhibition, BT-549; format: cell-based; conditions: Homo sapiens, Breast Cancer
Source text: as §1

OVCAR-5 = experiment: NCI-60 growth inhibition, OVCAR-5; format: cell-based; conditions: Homo sapiens, Ovarian Cancer
Source text: as §1

EKVX = experiment: NCI-60 growth inhibition, EKVX; format: cell-based; conditions: Homo sapiens, NSCLC
Source text: as §1

[1] = test system: NCI-60 cancer cell line panel; experiment: NCI-60 cancer cell line panel (overall); format: cell-based; conditions: Homo sapiens; 40 most sensitive of the 60 cancer cell lines
Source text: as §1

OVCAR-3 = experiment: NCI-60 growth inhibition, OVCAR-3; format: cell-based; conditions: Homo sapiens, Ovarian Cancer
Source text: as §1

HCT-15 = experiment: NCI-60 growth inhibition, HCT-15; format: cell-based; conditions: Homo sapiens, Colon Cancer
Source text: as §1

MALME-3M = experiment: NCI-60 growth inhibition, MALME-3M; format: cell-based; conditions: Homo sapiens, Melanoma
Source text: as §1

A498 = experiment: NCI-60 growth inhibition, A498; format: cell-based; conditions: Homo sapiens, Renal Cancer
Source text: as §1

OVCAR-4 = experiment: NCI-60 growth inhibition, OVCAR-4; format: cell-based; conditions: Homo sapiens, Ovarian Cancer
Source text: as §1

HOP-92 = experiment: NCI-60 growth inhibition, HOP-92; format: cell-based; conditions: Homo sapiens, NSCLC
Source text: as §1

SNB-75 = experiment: NCI-60 growth inhibition, SNB-75; format: cell-based; conditions: Homo sapiens, CNS Cancer
Source text: as §1

MDA-MB-435 tumors = experiment: MDA-MB-435 xenograft model; format: in vivo, nude mice; conditions: 75 mg/kg i.p. 3 × a week
Protocol: Compound 4 was selected for further evaluation in an in vivo xenograft mouse study in light of its nanomolar potency in vitro in the NCI-60 cancer cell line panel and its potent microtubule depolymerization activity. The in vivo effects of 4 were tested in the MDA-MB-435 xenograft model (Figure 5).
MDA-MB-435 tumor fragments were implanted s.c. into the flanks of female nude mice. […] Compound 4 was dissolved in a 50:50 Cremophor EL/DMSO mixture and further dissolved in PBS for a final concentration of 10:10:80 Cremophor EL:DMSO:PBS (v/v). […] Tumor volumes and mouse weights were measured 2–3 times a week. A two-way ANOVA with Dunnett’s post-hoc tests including all treatment groups in the trial was used to determine significant differences in tumor volumes between drug-treated and untreated control groups on each measurement day. These animal studies were performed at the University of Texas Health Science Center in San Antonio in compliance with an approved Institutional Animal Care and Use protocol.
MDA-MB-435 tumors were implanted into the flanks of nude mice and allowed to grow until they reached a volume of ~200 mm^3. […] Tumor volumes and mouse weights were measured 2–3 times a week. Statistical significance was evaluated by two-way ANOVA (time vs. drug) with Dunnett’s post-hoc tests. A statistically significant difference in tumor volume was detected on day 14 between mice treated with 4 (* p = 0.0384) and untreated control tumors.

SK-MEL-5 = experiment: NCI-60 growth inhibition, SK-MEL-5; format: cell-based; conditions: Homo sapiens, Melanoma
Source text: as §1

PC-3 = experiment: NCI-60 growth inhibition, PC-3; format: cell-based; conditions: Homo sapiens, Prostate Cancer
Source text: as §1

TK-10 = experiment: NCI-60 growth inhibition, TK-10; format: cell-based; conditions: Homo sapiens, Renal Cancer
Source text: as §1

NCI-H23 = experiment: NCI-60 growth inhibition, NCI-H23; format: cell-based; conditions: Homo sapiens, NSCLC
Source text: as §1

A549/ATCC = experiment: NCI-60 growth inhibition, A549/ATCC; format: cell-based; conditions: Homo sapiens, NSCLC
Source text: as §1

786-0 = experiment: NCI-60 growth inhibition, 786-0; format: cell-based; conditions: Homo sapiens, Renal Cancer
Source text: as §1

SNB-19 = experiment: NCI-60 growth inhibition, SNB-19; format: cell-based; conditions: Homo sapiens, CNS Cancer
Source text: as §1

NCI-H226 = experiment: NCI-60 growth inhibition, NCI-H226; format: cell-based; conditions: Homo sapiens, NSCLC
Source text: as §1

HeLa cells = experiment: SRB assay in HeLa cells; format: cell-based; conditions: Homo sapiens, read-out: IC50 ± SD in HeLa
Protocol: Compounds 4–8, 10, 12, and 13 were evaluated for their abilities to overcome βIII-tubulin mediated drug resistance using an isogenic HeLa cell line pair (Table 4). […] The Rr values (Table 4) were calculated by dividing the IC50 of the βIII-tubulin expressing line by the IC50 obtained in the parental HeLa cells.
The antiproliferative and cytotoxic effects of the compounds in cancer cells were evaluated using the SRB assay as previously described. MDA-MB-435 cells were obtained from the Lombardi Cancer Center of Georgetown University (Washington, DC, USA). SK-OV-3 and HeLa cells were purchased from ATCC. Details about the generation of the SK-OV-3 MDR1-M6/6 and HeLa WTβIII cells were described previously. The IC50 values represent an average of three independent experiments, each conducted using triplicate points.
HeLa, A-10, SK-OV-3, and SK-OV-3 MDR1-M6/6 cells were grown in Basal Medium Eagle (Sigma-Aldrich, St. Louis, MO, USA) supplemented with 10% FBS (Hyclone, GE Life Sciences, Logan, UT, USA) 1% GlutaMAX (Gibco, Life Technologies, Waltham, MA, USA) and 50 µg/mL gentamycin (Life Technologies, USA). HeLa WTβIII cells were grown in Dulbecco’s Modified Eagle Medium (Life Technologies) supplemented with 10% FBS and 50 µg/mL gentamycin. MDA-MB-435 cells were maintained in Improved Minimum Essential Medium (Life Technologies) supplemented with 10% FBS and 25 µg/mL gentamycin. All cells were grown at 37 °C in a humidified environment with 5% CO2.

NCI-H322M = experiment: NCI-60 growth inhibition, NCI-H322M; format: cell-based; conditions: Homo sapiens, NSCLC
Source text: as §1

HCC-2998 = experiment: NCI-60 growth inhibition, HCC-2998; format: cell-based; conditions: Homo sapiens, Colon Cancer
Source text: as §1

KM12 = experiment: NCI-60 growth inhibition, KM12; format: cell-based; conditions: Homo sapiens, Colon Cancer
Source text: as §1

`COc1ccc(N(C)c2nc(N)nc3sc4c(c23)CCCC4)cc1` [Compound 4, N4-(4-methoxyphenyl)-N4-methyl-5,6,7,8-tetrahydrobenzo[4,5]thieno[2,3-d]pyrimidine-2,4-diamine] gave a GI50 (CAKI-1) of 16.8 nM, a GI50 (OVCAR-8) of 18.1 nM and a GI50 (MOLT-4) of 8.8 nM. It also gave a GI50 (M14) of 4.32 nM, a GI50 (UACC-62) of 14.9 nM and a GI50 (MDA-MB-468) of 6.05 nM. For the same molecule, the GI50 (BT-549) was 17.5 nM, the GI50 (OVCAR-5) was 10.8 nM and the GI50 (EKVX) was 11.2 nM. For the same molecule, the GI50 [1] was about 10 nM, the GI50 (OVCAR-3) was 17.1 nM and the GI50 (HCT-15) was 8.85 nM. The GI50 (MALME-3M) was 12.2 nM, the GI50 (A498) was 12 nM and the GI50 (OVCAR-4) was 9.98 nM. For the same molecule, the GI50 (HOP-92) was 14.1 nM, the GI50 (SNB-75) was 8.42 nM and the “Antitumor effects on MDA-MB-435 tumor volume vs control” value (MDA-MB-435 tumors; day 14) was “statistically significant antitumor effects”. The Weight loss (MDA-MB-435 tumors; nude mice) was “moderate weight loss”, the GI50 (SK-MEL-5) was 10.8 nM and the GI50 (PC-3) was 7.67 nM. The GI50 (TK-10) was 14.2 nM, the GI50 (NCI-H23) was 11.3 nM and the GI50 (A549/ATCC) was 12 nM. The GI50 (786-0) was 12.4 nM, the GI50 (SNB-19) was 9.04 nM and the GI50 (NCI-H226) was 17.5 nM. The IC50 (HeLa cells) was 13.5 ± 1.5 nM, the GI50 (NCI-H322M) was 11.6 nM and the GI50 (HCC-2998) was 11.8 nM. It also gave a GI50 (KM12) of 13.4 nM.
